Measurements published in PMC8042770, “Odorant Receptors for Detecting Flowering Plant Cues Are Functionally Conserved across Moths and Butterflies” (Molecular Biology and Evolution, 2020).

Experiments:
HarmOR repertoire = experiment: Responses of the 28 functional HarmORs across odorant doses (PCA of oocyte currents); type: cell-based, Helicoverpa armigera; details: odorant 10^−7 M
From the text: Vectors quantifying the responses of the 28 ORs to each odorant were projected onto a 3D landscape. This 3D representation captured 78.34% (10^−4 M), 65.11% (10^−5 M), 68.89% (10^−6 M), and 84.52% (10^−7 M) of the variation in the original 28D data set across different odorant concentrations. […] In addition, the capacity of the H. armigera odor space was highly dependent on odorant concentration. As the concentrations of odorants decreased, their positions in the odor space converged, with the ability to discriminate different odorants diminishing.
Functional characterization of individual ORs was performed by heterologous expression in Xenopus oocytes combined with a two-electrode voltage-clamp system ([Wang et al. 2010]). Briefly, the full-length gene of each OR and Orco were subcloned into the eukaryotic expression vector pT7TS. cRNAs were generated from linearized expression vectors using the mMESSAGE mMACHINE T7 kit (Ambion, Austin, TX). Then, the cRNA mixture of ORx and Orco (27.6 ng each) was injected (Nanoliter 2010, WPI Inc., Sarasota, FL) into oocytes (stage V–VII). The respective Orcos of different species were used for functional studies of OR42 orthologs except for the four butterfly species (V. tameamea, P. xuthus, D. plexippus, and P. rapae), in which we used the Orco from P. xuthus. After incubation in nutrient solution at 18 °C for 3–5 days, the response profile of each oocyte to multiple plant odorants was recorded via a two-electrode voltage clamp (OC-725C oocyte clamp, Warner Instruments, Hamden, CT) at a holding potential of −80 mV. Data were acquired by using a Digidata 1440 A and were analyzed by pCLAMP 10.2 software (Axon Instruments Inc., Union City, CA).
Stock solutions of each odorant were prepared at 1 M using DMSO as a solvent, and each odorant was diluted in 1× Ringer’s solution to the indicated concentrations for electrophysiological recording. For functional screening of each HarmOR, a panel of 67 odorants belonging to three types of chemical classes: terpenes, aromatics, and aliphatics (short-chain fatty acid) were used (supplementary table S1, Supplementary Material online). For functional studies of OR42 orthologs from different species, six odorants including PAA, benzaldehyde, (E)-2-hexen-1-al, cinnamaldehyde, 2-phenylethanol, and heptanal were used.
Graphs and data statistics of OR response spectra, dose responses, EAG, and behavioral experiments were generated by Prism 7 (GraphPad Software, La Jolla, CA). A heat map was generated in Excel 2010 (Microsoft Corporation, WA). […] For tuning breadth analysis, the kurtosis values (K) were calculated by SPSS 22 (SPSS Inc., Chicago, IL) and were used to define the tuning spectra width, where smaller K values represent broader tuning spectra (fig. 1B). […]

H. armigera moths = experiment: Two-choice olfactometer behavioral assay, adult moths; type: in vivo, Helicoverpa armigera; details: females and males, 0.01 mg PAA or 50 μl 0.1% IAC, 10 h
Experimental: In a first step, we tested the attractiveness of PAA and a commercial mix of floral attractants, which takes PAA as its principal component (IAC) ([Cork 2016]; [Whitfield et al. 2019]), to H. armigera moths using a two-choice behavioral assay in a choice box (fig. 6A).
For adults, behavioral experiments were performed in a two-choice olfactometer according to a previous study with some modifications ([Del Socorro et al. 2010]). The olfactometer apparatus consisted of a main-chamber (60 cm × 30 cm × 25 cm) and two-choice subchambers under the main-chamber (20 cm × 15 cm × 25 cm) (fig. 6A). A metal gauze funnel (10 cm diameter) was inserted between the main-chamber and the subchambers. A hole at the bottom of the funnel allowed the moth to enter the subchamber. Clean humidified air flows (15 l/min) entered each subchamber and were exhausted by an exhaust fan. All the experiments were performed during the moth scotophase at 27 ± 1 °C. […] After 10 h, the number of moths in each subchamber was recorded. […] A selection ratio (SR) was calculated using the formula: SR = T/(T + C), where T represents the number of moths that entered the test subchamber and C represents the number of moths that entered the control subchamber. […] A quantity of 0.01 mg PAA was applied. […] The results were statistically analyzed using a χ^2 test.

[1] = system: H. armigera moth antennae; experiment: Electroantennography (EAG), wild-type vs HarmOR42 knock-out moths; type: in vivo, Helicoverpa armigera; details: single odorants, 1 μg
From the text: We next conducted a loss-of-function study by generating a HarmOR42-lacking H. armigera strain by CRISPR/Cas9 targeting the first coding exon. Homozygous mutants were obtained with a large segment deletion of 203 bp and a 6-bp nonhomologous insertion in the genome (fig. 6B), introducing a premature stop codon in the coding sequence. […] The most likely hypothesis is that HarmOR42 is not the major receptor for sensing this compound in H. armigera. As a control, we tested the response of male moths to the sex pheromone component Z11-16: Ald that is not a ligand of HarmOR42. As expected, we observed no difference between the EAG responses of mutant and wild-type moths to this compound.
The antennae of 2- to 3-day-old virgin male and female moths were cut at the base of the flagellum. After removing the tip, one antenna was inserted between two glass electrodes filled with 0.1 M KCl solution. In each test, a 10-μl solution of each odorant was added onto a piece of filter paper (0.5 cm × 0.5 cm) and then inserted into a Pasteur pipette. About 100 ng/μl stock solutions of individual odorants and different doses of the mixture IAC were prepared with paraffin oil. A continuous airflow of 30 ml/s was produced by a stimulus controller (CS-55, Syntech, Kirchzarten, Germany). Odor stimulation was controlled by a puff of purified air (0.2 s at 10 ml/s airflow) from the CS-55. EAG signals were amplified with a 10× AC/DC headstage preamplifier (Syntech) and further acquired with an Intelligent Data Acquisition Controller (IDAC-4-USB, Syntech) ([Cao et al. 2016]). The signals were recorded, monitored, and analyzed using Syntech EAG-software (Syntech, Germany). The EAG response values for each compound were calculated by subtracting the value of the same antennae corresponding to a solvent blank of paraffin oil.

Structure (SMILES): O=CCc1ccccc1 [Phenylacetaldehyde]
- response of the HarmOR repertoire (HarmOR repertoire): still responded
- attractiveness to wild-type moths vs solvent (H. armigera moths): more attractive to H. armigera moths than the solvent control, but the results were not statistically significant
- EAG response of HarmOR42 knock-out mutants compared with wild-type moths [1]: significantly decreased
